Measurements published in publication doi:10.1101/2023.08.21.552681v1 (biorxiv, 2023).
pKd: −log10 of the molar value.

Target: T1, ctdWDR91 (Homo sapiens, UniProt A4D1P6)
T1 sequence (A4D1P6 392-747): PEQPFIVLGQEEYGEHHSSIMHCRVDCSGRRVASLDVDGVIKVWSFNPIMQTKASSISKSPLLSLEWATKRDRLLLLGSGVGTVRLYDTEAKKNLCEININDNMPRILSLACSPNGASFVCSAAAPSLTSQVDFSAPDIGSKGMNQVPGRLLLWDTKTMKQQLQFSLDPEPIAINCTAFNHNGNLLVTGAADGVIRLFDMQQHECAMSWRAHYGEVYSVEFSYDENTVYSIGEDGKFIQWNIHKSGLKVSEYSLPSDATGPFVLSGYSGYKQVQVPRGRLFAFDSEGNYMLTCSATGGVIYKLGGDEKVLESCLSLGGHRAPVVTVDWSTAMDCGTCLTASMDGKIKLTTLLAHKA
Assay: biochemical

pKd	Compound
< 4.35	O=C(Nc1cccc2cnccc12)c1cccc([N+](=O)[O-])c1 [MRGG044720b]
< 4.35	COc1cc(C)nc(NC(=O)c2ccoc2C2CC2)n1 [MRGG044772b]
< 4.35	Cc1cc(N2CCN(C(=O)c3cc(F)c(F)cc3[N+](=O)[O-])CC2)c(F)cc1[N+](=O)[O-] [MRGG044777a]
< 4.35	O=[N+]([O-])c1ccc(N2CCCC2)cc1NCc1ccc(Cl)cc1 [MRGG044778a]
< 4.35	Cc1c(C#N)c2ccccc2n1CC(=O)N1CCc2ccccc2C1 [MRGG044779a]
4.77	O=C(NCc1ccc2c(c1)OCO2)c1ccc2snnc2c1 [MRGG044780a]
< 4.35	O=c1c2c(F)cccc2ncn1CC1CCN(C2CC2)C1 (stereo not shown) [MRGG044781a]
< 4.35	O=C(NCc1ccc2nonc2c1)c1cn2ccsc2n1 [MRGG044782a]
< 4.35	O=C(NC1CC2(CCCC2)Oc2ccccc21)c1cnc2ccccn2c1=O (stereo not shown) [MRGG044783a]
< 4.35	Cc1c(C(=O)NCc2n[nH]c(N)n2)n(C)c2ccc(F)cc12 [MRGG044784a]
< 4.35	CN(CCc1ccccc1)C(=O)c1nc2sccn2c1CN1CC[C@H](O)C1 [MRGG044785a]
< 4.35	Cc1ccccc1N1CCC(CNC(=O)Cc2ccc(C(F)(F)F)cc2)C1 (stereo not shown) [MRGG044786a]
< 4.35	COc1cccc2c1OCCCN(C(=O)c1cn3ccsc3n1)C2 [MRGG044787a]
< 4.35	O=C(NC1CCc2ccccc21)c1ccc(Cl)cc1 (stereo not shown) [MRGG044788a]
< 4.35	Cc1cc2ccccc2n1CC(=O)Nc1cc(C(N)=O)ccc1N1CCCC1 [MRGG044789a]
< 4.35	O=C(Cc1cn2ccsc2n1)NC1(c2ccc(Cl)cc2)CC1 [MRGG044790a]
4.44	CC(NC(=O)c1ccc2c(c1)NC(=O)CO2)c1cccc(Cl)c1 (stereo not shown) [MRGG044791a]
< 4.35	NC(=O)[C@]12CCOC[C@H]1CN(C(=O)c1cccc(N3CCCC3)c1)C2 [MRGG044792a]
< 4.35	CNC(=O)[C@@H](NC(=O)c1ccc2[nH]ccc2n1)C(C)C [MRGG044793a]
< 4.35	COc1ccc(C(NC(=O)CN2CCn3ncnc3C2)c2ccc(OC)cc2)cc1 [MRGG044794a]
< 4.35	Fc1ccc(N2CCC(CNc3ncnc4ccncc34)C2)cc1F (stereo not shown) [MRGG044795a]
< 4.35	CC(NC(=O)c1cccc(N2CCCC2)c1)(C(=O)O)c1ccccc1 (stereo not shown) [MRGG044796a]

pKd	Compound
< 4.35	CN(C)C1(CNC(=O)c2ccc3oc(=O)[nH]c3c2)Cc2ccccc2C1 [MRGG044797a]
< 4.35	Cc1cc(C#N)nc(NC2CC(C)N(C3CC3)C2)n1 (stereo not shown) [MRGG044798a]
< 4.35	CN(C)c1nc2ccc(NCc3cc4c(cc3O)OCO4)cc2o1 [MRGG044799a]
< 4.35	O=C1Cc2ccc(C(=O)NC3Cc4ccccc4C3O)cc2N1 (stereo not shown) [MRGG044800a]
< 4.35	c1ccc2oc(-c3n[nH]cc3CNCC3CCN(C4CC4)C3)cc2c1 (stereo not shown) [MRGG044801a]
< 4.35	CC1CN(C2CC2)CC1NCc1ccccc1-n1ccnc1 (stereo not shown) [MRGG044802a]
< 4.35	CC1CN(C2CC2)CC1NS(=O)(=O)c1cnn(-c2ccccc2)c1 (stereo not shown) [MRGG044803a]
< 4.35	N#Cc1cc(CNc2ccccc2CN2CCNC2=O)ccc1F [MRGG044804a]
< 4.35	CC1CCN(c2ccc(C(=O)N3c4ccccc4CC3CO)cc2)C1 (stereo not shown) [MRGG044805a]
< 4.35	N#Cc1ccc(NCc2cc(Cl)cc(C(F)(F)F)c2)cn1 [MRGG044806a]
< 4.35	O=C(NC1CCN(c2cccc(Cl)c2)C1)c1cccc2c1OCO2 (stereo not shown) [MRGG044807a]
< 4.35	O=C(c1snc(O)c1Cl)N1CCC2(CCc3ccccc3O2)C1 (stereo not shown) [MRGG044808a]
< 4.35	CC(C)(C)OC(=O)N1C[C@@H](Cc2ccccc2)[C@H](O)C1 [MRGG044809a]
< 4.35	N#Cc1cn(CC2CCN(c3ccccc3)C2)c(=O)[nH]c1=O (stereo not shown) [MRGG044810a]
< 4.35	COc1cccc(N2CCC(CNC(=O)c3cccc(F)c3)C2)c1 (stereo not shown) [MRGG044811a]
< 4.35	N#Cc1cc(Br)cc(N2CCCC2)c1 [MRGG044812a]
< 4.35	Cc1nc(N(C)C)sc1CCNc1cc(C(F)(F)F)cc(C#N)n1 [MRGG044814a]
< 4.35	NC12CCCC1CN(C(=O)c1nccc3cccnc13)C2 (stereo not shown) [MRGG044815a]
< 4.35	O=C(NCC1CCN(C2CC2)C1)c1ccc(Cl)cc1 (stereo not shown) [MRGG044816a]
< 4.35	CC(C)(C)OC(=O)N1CCC2(CC(N)c3ccccc3O2)C1 (stereo not shown) [MRGG044817a]
< 4.35	Cc1ccc(N)cc1C(=O)N1C2C=C(c3ccccc3)CC1CC2 (stereo not shown) [MRGG044818aAD]
< 4.35	CN(CC1CCN(Cc2ccccc2)C1)C(=O)Cc1cccc(O)c1 (stereo not shown) [MRGG044819a]

pKd	Compound
< 4.35	N#Cc1cccc(CNC(=O)C2=NN(c3ccccc3)C(=O)CN2)c1 [MRGG044820a]
< 4.35	CC(NC(=O)c1ccc2c(=O)n3c(nc2c1)CCC3)c1ccc(Cl)cc1 (stereo not shown) [MRGG044821a]
< 4.35	CCC(NC(=O)CN1CCn2cncc2C1)c1ccc(Cl)cc1 (stereo not shown) [MRGG044822a]
< 4.35	CC(NC(=O)C1Cc2ccccc2O1)c1cccc(N2CCCC2)c1 (stereo not shown) [MRGG044823a]
< 4.35	CCC(NC(=O)c1ccc(S(=O)(=O)NC2CC2)cc1)c1ccc(Br)cc1 (stereo not shown) [MRGG044824a]
< 4.35	O=C(NCCc1ccc(O)c(O)c1)Nc1cccc(N2CCNC2=O)c1 [MRGG044825a]
< 4.35	CC1c2cccn2CCN1C(=O)c1cc(Br)cc(N2CCCC2)c1 (stereo not shown) [MRGG044826a]
< 4.35	CC1CN(C2CC2)CC1NC(=O)c1cc2cc(Br)ccc2o1 (stereo not shown) [MRGG044827a]
< 4.35	O=C(Nc1ccc2oc(=O)ccc2c1)c1cc(F)c(F)cc1[N+](=O)[O-] [MRGG044828a]
< 4.35	Cc1cc(NCC2CCN(C3CC3)C2)nc(-c2cccc([N+](=O)[O-])c2)n1 (stereo not shown) [MRGG044829a]
< 4.35	c1nc(NC2CCN(C3CC3)C2)c2ccsc2n1 (stereo not shown) [MRGG044830a]
< 4.35	O=C(NC(CO)c1ccc(Cl)cc1)c1cccc2cn[nH]c12 (stereo not shown) [MRGG044832a]
< 4.35	Cc1ccc(C(=O)NC(c2ccc(Cl)cc2)C2CC2)cc1[N+](=O)[O-] (stereo not shown) [MRGG044833a]
< 4.35	CCOc1ccc2c(c1)C(NC(=O)c1cn3ccnc3s1)CCO2 (stereo not shown) [MRGG044834a]
< 4.35	c1ccc2c(c1)OCCCC2NC1CCN(C2CC2)C1 (stereo not shown) [MRGG044835a]
< 4.35	CC(NC(=O)c1ccc(CNC(N)=O)cc1)c1ccc(Cl)c(Cl)c1 (stereo not shown) [MRGG044836a]
< 4.35	CC(=O)N1CCCC(C(=O)N(C)CCc2ccc(F)cc2)C1 (stereo not shown) [MRGG044837a]
< 4.35	Cn1ccc(C(=O)Nc2ccc(N3CCCCC3)c3ccncc23)cc1=O [MRGG044838a]
< 4.35	CC(NC(=O)CN(C)Cc1ccc(Cl)c(Cl)c1)c1ccccc1 (stereo not shown) [MRGG044839a]
< 4.35	NC(=O)C1=NOC(CNC(=O)NCC2CCN(c3ccccc3)C2)C1 (stereo not shown) [MRGG044840a]
< 4.35	COC(=O)c1ccccc1NC(=O)c1ccc2nnsc2c1 [MRGG044841a]
< 4.35	CN(Cc1ccc(Cl)c(Cl)c1)C(=O)COC(=O)C=Cc1ccc(O)c(O)c1 [MRGG045262a]

pKd	Compound
< 4.35	COCC1CCN(c2ccc(C(=O)N3C[C@@H]4C[C@H]3CN4C3CC3)cc2)C1 (stereo partly shown) [MRGG045264a]
< 4.35	NC(=O)C1(NC(=O)c2ccc3cccnc3c2)Cc2ccccc2C1 [MRGG045265a]
< 4.35	CN1C[C@@H]2CN(C(=O)c3cc(Br)c([N+](=O)[O-])[nH]3)C[C@@H]2C1 [MRGG045266a]
< 4.35	O=C(NC1(c2ccc(F)cc2)COC1)c1ccc2cnccc2c1 [MRGG045267a]
< 4.35	CN(CCc1ccccc1F)C(=O)c1cnc2sccn12 [MRGG045268a]
< 4.35	CCN(CC(=O)NCc1cc(Cl)c(Cl)cc1Cl)C1CC1 [MRGG045269a]
< 4.35	CN(CCCc1ccccc1)C(=O)c1cn2ccnc2s1 [MRGG045270a]
< 4.35	O=C(NC(CCO)c1ccc(Cl)cc1)c1ccc(CN2CCCC2=O)cc1 (stereo not shown) [MRGG045272a]
< 4.35	O=C(NC(CO)C(O)c1ccc(Cl)cc1)c1ccc2ccncc2c1 (stereo not shown) [MRGG045273a]
< 4.35	CN(Cc1ccc(-c2ccc(Cl)cc2)o1)C(=O)CN1C(=O)c2cccnc2C1=O [MRGG045274a]
< 4.35	COc1ccc(C(NC(=O)C2CC(C)=NO2)c2ccc(Cl)cc2)cc1 (stereo not shown) [MRGG045275a]
< 4.35	CN1CCOC(C(NC(=O)c2cncc3cnccc23)c2ccc(Cl)cc2)C1 (stereo not shown) [MRGG045276a]
< 4.35	CCN1CCN(c2ccc(C(=O)N(C)c3cccc(C)c3)cc2F)CC1 [MRGG045277a]
< 4.35	Cc1nn2cc(C(=O)N(C)CCc3cccc(C#N)c3)nc2s1 [MRGG045278a]
< 4.35	CC(NC(=O)CN(C)C1CCN(C2CC2)C1)c1ccc(Br)cc1 (stereo not shown) [MRGG045280a]
< 4.35	O=C(CCN1C[C@@H]2C[C@H]1CN2C1CC1)NCc1ccccc1Cl [MRGG045281a]
< 4.35	Cc1nn(C)cc1C1=NOC(C(=O)N[C@H](C)c2ccc(Br)cc2)C1 (stereo partly shown) [MRGG045282a]
< 4.35	O=C(CSc1nnc(-c2ccc(Cl)cc2)o1)NCc1ccc(O)c(O)c1 [MRGG045283a]
< 4.35	N#Cc1cccc(CN(C=O)C2CC3(CCCC3)Oc3ccccc32)c1 (stereo not shown) [MRGG045284a]
< 4.35	CC1(CNC2CCN(C3CC3)C2)CCN(C(=O)OC(C)(C)C)C1 (stereo not shown) [MRGG045285a]
< 4.35	CN(C)C(=O)CC1CCN(C(=O)c2cc3cc(O)c(O)cc3s2)CC1 [MRGG045286a]
< 4.35	CNC(=O)c1cc(C)nc(N2CCC3(CC2)CN(C)c2ccccc23)n1 [MRGG045287a]

Compound	pKd
O=[N+]([O-])c1ccc(N2CCC(CNc3ccccn3)C2)c2ccncc12 (stereo not shown) [MRGG044831a]	< 4.35
COC(=O)c1ccc(C(=O)N2C3CCC2CN(C)C3)cn1 [MRGG045263a]	< 4.35
CN1CCC2(CCCN(C(=O)c3cccnc3C(N)=O)C2)C1 (stereo not shown) [MRGG045271a]	< 4.35
